Measured values reported in patent publication US20030087906A1, “NITROGEN SUBSTITUTED BIARYL PURINE DERIVATIVES AS POTENT ANTIPROLIFERATIVE AGENTS” (priority 2001, published 2003).

What was measured:
Assay in all cases: NCI 60-cell line growth inhibition assay
Assay type in all cases: cell-based
[1] = test system: PC-3; conditions: Homo sapiens
[2] = test system: NCI-H322M; conditions: Homo sapiens
[3] = test system: MOLT-4; conditions: Homo sapiens
[4] = test system: HCT-116; conditions: Homo sapiens
[5] = test system: MDA-MB-435; conditions: Homo sapiens
[6] = test system: SR; conditions: Homo sapiens
[7] = test system: HL-60(TB); conditions: Homo sapiens; HL-60(TB) (Leukemia)
[8] = test system: SW-620; conditions: Homo sapiens
[9] = test system: SF-268; conditions: Homo sapiens
[10] = test system: SK-OV-3; conditions: Homo sapiens
[11] = test system: IGROV1; conditions: Homo sapiens, IGROV-1
[12] = test system: LOX IMVI; conditions: Homo sapiens
[13] = test system: OVCAR-4; conditions: Homo sapiens
[14] = test system: SK-MEL-5; conditions: Homo sapiens
[15] = test system: K-562; conditions: Homo sapiens, K562
[16] = test system: COLO 205; conditions: Homo sapiens
[17] = test system: HCC-2998; conditions: Homo sapiens
[18] = test system: EKVX; conditions: Homo sapiens
[19] = test system: KM12; conditions: Homo sapiens
[20] = test system: NCI/ADR-RES; conditions: Homo sapiens
[21] = test system: HOP-92; conditions: Homo sapiens
[22] = test system: A549/ATCC; conditions: Homo sapiens
[23] = test system: M14; conditions: Homo sapiens
[24] = test system: CCRF-CEM; conditions: Homo sapiens
[25] = test system: HOP-62; conditions: Homo sapiens
[26] = test system: NCI-H23; conditions: Homo sapiens
[27] = test system: NCI-H460; conditions: Homo sapiens
[28] = test system: HCT-15; conditions: Homo sapiens
[29] = test system: T-47D; conditions: Homo sapiens, T47D
[30] = test system: MALME-3M; conditions: Homo sapiens
[31] = test system: SNB-19; conditions: Homo sapiens
[32] = test system: SK-MEL-2; conditions: Homo sapiens; SK-MEL-2 (Melanoma)
[33] = test system: CAKI-1; conditions: Homo sapiens
[34] = test system: SF-295; conditions: Homo sapiens
[35] = test system: OVCAR-8; conditions: Homo sapiens
[36] = test system: A498; conditions: Homo sapiens
[37] = test system: NCI-H522; conditions: Homo sapiens; NCI-H522 (Non-Small Cell Lung)
[38] = test system: RPMI-8226; conditions: Homo sapiens
[39] = test system: SN12C; conditions: Homo sapiens
[40] = test system: NCI-H226; conditions: Homo sapiens; Non-Small Cell Lung, NCI-H226
[41] = NCI-H322M (Non-Small Cell Lung)
[42] = A549/ATCC (Non-Small Cell Lung)

CC[C@H](CO)Nc1nc(NCc2ccc(-c3ccc(OC)cc3)cc2)c2ncn(C(C)C)c2n1 [Compound 43]
GI50 ([1]; PC-3 (Prostate)): 38.9 µM
GI50 [2, 41]: 3.5 µM
GI50 ([3]; MOLT-4 (Leukemia)): 2 µM
GI50 ([4]; HCT-116 (Colon)): 2.1 µM
GI50 ([5]; MDA-MB-435 (Breast)): 2.1 µM
GI50 ([6]; SR (Leukemia)): 2.2 µM
GI50 [7]: 2.1 µM
GI50 ([8]; SW-620 (Colon)): 1.6 µM
GI50 ([9]; SF-268 (CNS)): 3 µM
GI50 ([10]; SK-OV-3 (Ovarian)): 72.4 µM
GI50 ([11]; IGROV1 (Ovarian)): 3.4 µM
GI50 ([12]; LOX IMVI (Melanoma)): 3.4 µM
GI50 ([13]; OVCAR-4 (Ovarian)): 8.9 µM
GI50 ([14]; SK-MEL-5 (Melanoma)): 2.1 µM
GI50 ([15]; K-562 (Leukemia)): 3.1 µM
GI50 ([16]; COLO 205 (Colon)): 1.6 µM
GI50 ([17]; HCC-2998 (Colon)): 3.4 µM
GI50 ([18]; EKVX (Non-Small Cell Lung)): 2.8 µM
GI50 ([19]; KM12 (Colon)): 2.3 µM
GI50 ([20]; NCI/ADR-RES (Breast)): 5.2 µM
GI50 ([21]; HOP-92 (Non-Small Cell Lung)): 2.6 µM
GI50 [22, 42]: 4.1 µM
GI50 ([23]; M14 (Melanoma)): 2.2 µM
GI50 ([24]; CCRF-CEM (Leukemia)): 2.8 µM
GI50 ([25]; HOP-62 (Non-Small Cell Lung)): 3.3 µM
GI50 ([26]; NCI-H23 (Non-Small Cell Lung)): 4.3 µM
GI50 ([27]; NCI-H460 (Non-Small Cell Lung)): 3.2 µM
GI50 ([28]; HCT-15 (Colon)): 3.9 µM
GI50 ([29]; T-47D (Breast)): 2.2 µM
GI50 ([30]; MALME-3M (Melanoma)): 3 µM
GI50 ([31]; SNB-19 (CNS)): 5 µM
GI50 [32]: 61.7 µM
GI50 ([33]; CAKI-1 (Renal)): 3 µM
GI50 ([34]; SF-295 (CNS)): 4 µM
GI50 ([35]; OVCAR-8 (Ovarian)): 3.9 µM
GI50 ([36]; A498 (Renal)): 3 µM

CC[C@H](CO)Nc1nc(NCc2ccc(-c3cccc([N+](=O)[O-])c3)cc2)c2ncn(C(C)C)c2n1 [Compound 48]
GI50 ([1]; PC-3 (Prostate)): 0.23 µM
GI50 [2, 41]: 0.03 µM
GI50 ([3]; MOLT-4 (Leukemia)): 0.05 µM
GI50 ([4]; HCT-116 (Colon)): 0.19 µM
GI50 [37]: < 0.01 µM
GI50 ([6]; SR (Leukemia)): 0.16 µM
GI50 ([8]; SW-620 (Colon)): < 0.01 µM
GI50 ([9]; SF-268 (CNS)): < 0.01 µM
GI50 ([10]; SK-OV-3 (Ovarian)): 1.38 µM
GI50 ([11]; IGROV1 (Ovarian)): 0.23 µM
GI50 ([12]; LOX IMVI (Melanoma)): 0.19 µM
GI50 ([13]; OVCAR-4 (Ovarian)): 0.2 µM
GI50 ([14]; SK-MEL-5 (Melanoma)): 0.17 µM
GI50 ([15]; K-562 (Leukemia)): 0.16 µM
GI50 ([16]; COLO 205 (Colon)): 0.03 µM
GI50 ([38]; RPMI-8226 (Leukemia)): < 0.01 µM
GI50 ([39]; SN12C (Renal)): 0.03 µM
GI50 ([19]; KM12 (Colon)): 0.02 µM
GI50 ([20]; NCI/ADR-RES (Breast)): 0.12 µM
GI50 ([21]; HOP-92 (Non-Small Cell Lung)): 0.46 µM
GI50 [22, 42]: < 0.01 µM
GI50 ([23]; M14 (Melanoma)): < 0.01 µM
GI50 ([24]; CCRF-CEM (Leukemia)): 0.03 µM
GI50 ([25]; HOP-62 (Non-Small Cell Lung)): 0.03 µM
GI50 ([26]; NCI-H23 (Non-Small Cell Lung)): 0.07 µM
GI50 ([27]; NCI-H460 (Non-Small Cell Lung)): 0.25 µM
GI50 ([28]; HCT-15 (Colon)): 0.02 µM
GI50 ([29]; T-47D (Breast)): 0.15 µM
GI50 ([30]; MALME-3M (Melanoma)): 0.13 µM
GI50 ([31]; SNB-19 (CNS)): 0.02 µM
GI50 [32]: 0.48 µM
GI50 ([34]; SF-295 (CNS)): 0.24 µM
GI50 ([35]; OVCAR-8 (Ovarian)): 0.1 µM
GI50 ([36]; A498 (Renal)): 0.39 µM

CC[C@H](CO)Nc1nc(NCc2ccc(-c3ccccn3)cc2)c2ncn(C(C)C)c2n1 [Compound 17]
GI50 ([1]; Prostate, PC-3): 0.2 µM
GI50 ([2]; Non-Small Cell Lung, NCI-H322M): > 1000 µM
GI50 ([3]; Leukemia, MOLT-4): 0.25 µM
GI50 ([4]; Colon, HCT-116): 0.16 µM
GI50 [40]: 0.11 µM
GI50 ([5]; Breast, MDA-MB-435): 0.2 µM
GI50 ([6]; Leukemia, SR): 0.5 µM
GI50 ([8]; Colon, SW-620): 0.01 µM
GI50 ([9]; CNS, SF-268): 0.04 µM
GI50 ([10]; Ovarian, SK-OV-3): 0.4 µM
GI50 ([11]; Ovarian, IGROV1): 0.2 µM
GI50 ([12]; Melanoma, LOX IMVI): 0.32 µM
GI50 ([13]; Ovarian, OVCAR-4): 0.32 µM
GI50 ([14]; Melanoma, SK-MEL-5): 0.32 µM
GI50 ([15]; Leukemia, K-562): 0.16 µM
GI50 ([16]; Colon, COLO 205): 0.05 µM
GI50 ([17]; Colon, HCC-2998): 0.03 µM
GI50 ([38]; Leukemia, RPMI-8226): 0.03 µM
GI50 ([39]; Renal, SN12C): 0.56 µM
GI50 ([18]; Non-Small Cell Lung, EKVX): 2.51 µM
GI50 ([19]; Colon, KM12): 0.03 µM
GI50 ([20]; Breast, NCI/ADR-RES): 0.28 µM
GI50 ([21]; Non-Small Cell Lung, HOP-92): 1.58 µM
GI50 ([22]; Non-Small Cell Lung, A549/ATCC): 0.03 µM
GI50 ([23]; Melanoma, M14): 0.03 µM
GI50 ([24]; Leukemia, CCRF-CEM): 0.16 µM
GI50 ([25]; Non-Small Cell Lung, HOP-62): 0.2 µM
GI50 ([26]; Non-Small Cell Lung, NCI-H23): 0.16 µM
GI50 ([27]; Non-Small Cell Lung, NCI-H460): 0.41 µM
GI50 ([28]; Colon, HCT-15): 0.04 µM
GI50 ([29]; Breast, T-47D): 0.13 µM
GI50 ([30]; Melanoma, MALME-3M): 19.9 µM
GI50 ([31]; CNS, SNB-19): 0.14 µM
GI50 ([33]; Renal, CAKI-1): 0.13 µM
GI50 ([34]; CNS, SF-295): 0.19 µM
GI50 ([35]; Ovarian, OVCAR-8): 0.13 µM
GI50 ([36]; Renal, A498): 1.58 µM
